Measured values reported in ChEMBL document CHEMBL2363022, “Malaria Box Schistosomiasis Screening Data” (2013).

How the values were obtained:
Type in all cases: functional
Schistosoma mansoni [1] = system: Schistosoma mansoni; parameters: scale not given here
Schistosoma mansoni [2] = test: (§1) MMV: Motility assay. Percent change (relative to DMSO controls) @ 5 uM of movement of 4-5 Schistosoma mansoni adult males after 72 h as measured by the Consensus Voting Luminance Difference algorithm available on WormAssay (PMID:22303493). Occasional incongruence ocurrs between the motility scores and the visually adjudicated 'toxicity scores'. In these cases the 'toxicity score' should be prioritized. Only those Malaria box 'Drug-like' cpds yielding the most severe phenotypes vs. somules were tested. Caffrey group UCSF.
Schistosoma mansoni [3] = test: MMV: Toxicity @ 5 uM to 4-5 Schistosoma mansoni adult males after 72 h on a scale of 0 (none) - 4 (most). Includes short descriptors of effects as judged visually (PMID:19597541). Only those Malaria box 'drug-like' cpds yielding the most severe phenotypes vs. somules were tested. Caffrey group UCSF.
Schistosoma mansoni [4] = test: MMV: Toxicity @ 5 uM to 4-5 Schistosoma mansoni adult males after 48 h on a scale of 0 (none) - 4 (most). Includes short descriptors of effects as judged visually (PMID:19597541). Only those Malaria box 'drug-like' cpds yielding the most severe phenotypes vs. somules were tested. Caffrey group UCSF.
Schistosoma mansoni [5] = test: as §1, with “24” for “72”
Schistosoma mansoni [6] = test: as §1, with “48” for “72”
Schistosoma mansoni [7] = system: Schistosoma mansoni; parameters: scale not given here; remark: listed apart in the source
Schistosoma mansoni [8] = test: MMV: Toxicity @ 5 uM to 4-5 Schistosoma mansoni adult males after 24 h on a scale of 0 (none) - 4 (most). Includes short descriptors of effects as judged visually (PMID:19597541). Only those Malaria box 'drug-like' cpds yielding the most severe phenotypes vs. somules were tested. Caffrey group UCSF.
Schistosoma mansoni [9] = system: Schistosoma mansoni; parameters: scale not given here; remark: listed apart in the source

Compound | Toxicity (Schistosoma mansoni [1]) | Motility (Schistosoma mansoni [2]) | Toxicity (Schistosoma mansoni [3]) | Toxicity (Schistosoma mansoni [4]) | Motility (Schistosoma mansoni [5]) | Motility (Schistosoma mansoni [6]) | Toxicity (Schistosoma mansoni [7]) | Toxicity (Schistosoma mansoni [8]) | Toxicity (Schistosoma mansoni [9])
CC(C)(C)CC(C)(C)NCC(O)COc1ccc2c(c1)CCC2.Cl (stereo not drawn) | 4 | overactive | 1 | 1 | 146 | 153 | 2 | 0 | 2
CC(C)OCc1cc(CN2CCN(c3cccc(Cl)c3)CC2)c(O)c2ncccc12 | 4 | 59.8 | 2 | 2 | 27.4 | 55.2 | 3 | 2 | 2
Oc1ccccc1CN1CCC2(CCCN(Cc3ccccc3F)C2)C1 (stereo not drawn) | 3 | overactive | 1 | 1 | 175.4 | 150.6 | 3 | 1 | 2
Br.CCN(CC)S(=O)(=O)c1ccc(-c2csc(Nc3ccc(C)c(C)c3)n2)cc1 | 2 | 2.5 | 4 | 2 | 21.8 | 3.9 | 2 | 2 | 2
Oc1c(CN2CCN(c3ccccc3F)CC2)cc(Br)c2cccnc12 | 4 | 54.8 | 4 | 4 | 231 | 54.2 | 4 | 3 | 0
COCCNCC(O)Cn1c2ccc(Cl)cc2c2cc(Cl)ccc21 (stereo not drawn) | 4 | No effect | 0 | 0 | 94 | 94 | 4 | 0 | 4
Cc1ccc(CN2CCC(C(=O)Nc3ccc(-c4cc5ccccc5[nH]4)cc3)CC2)o1 | 4 | No effect | 0 | 0 | 122.1 | 126.5 | 4 | 0 | 0
O=C(Nc1ccc(F)c(Cl)c1)Nc1ccc(Cl)c(Cl)c1 | 4 | 2.6 | 4 | 4 | 3.2 | 3.2 | 3 | 2 | 3
CN(C)CCNc1cc(-c2ccccc2)nc2ccccc12 | 1 | No effect | 0 | 0 | 151.9 | 68.3 | 2 | 1 | 2
Clc1ccc2c(N3CCCC3)ccnc2c1 | 2 | No effect | 0 | 0 | 163 | 131.1 | 0 | 0 | 1
COc1ccc(-c2nc3cc(Cc4ccc5[nH]c(-c6ccc(OC)cc6)nc5c4)ccc3[nH]2)cc1 | 4 | 12.4 | 4 | 3 | 17.2 | 24.7 | 4 | 3 | 3
CC1CCN(Cc2ccc(NC(=O)c3cc4ccc5cccnc5c4[nH]3)cc2)CC1 | 4 | 110 | 0 | 0 | 138 | 97.2 | 4 | 0 | 0
